Results as given in paper PMC9682524, “Investigation of the Interaction between Human Serum Albumin and Branched Short-Chain Perfluoroalkyl Compounds” (Chemical Research in Toxicology, 2022).
Several values for one entry are separate records, joined by “and”; a condition that tells them apart may be missing. Equal values may be shown once. Read-outs that look alike come from different tables or passages of the source.

Columns and labels:
[1] = target: T1, human serum albumin (hSA) (Homo sapiens, UniProt P02768); assay: Competitive ITC with hSA saturated with ibuprofen or warfarin; format: binding; conditions: for titration profile to hSA saturated with War: 200 μM War; for titration profile to hSA saturated with War / titration profile to Ibu-saturated hSA: PFAS 4 mM titrant; for titration profile to Ibu-saturated hSA: 250 μM Ibu; for preferably occupied hSA binding sites: concluded from stoichiometry and competition with Ibu
T1 construct: purchased Albumin Bioscience (Huntsville, AL, USA)
Description: (§1) ITC experiments were performed using a Microcal PEAQ-ITC instrument (Malvern Panalytical, Malvern, UK). Both dhSA (110 μM) and ligands (HPFO-DA, C6O4, PFHxA, Ibu, and War, 4 mM solutions) were dissolved in 50 mM NaPi, 100 mM NaCl, pH 7.4. Only in the case of War, 2.5% v/v DMSO was added to the buffer to improve its solubility. All working solutions were properly degassed. Titrations of dhSA with ligands were carried out at different temperatures (298 and 310 K). In each experiment, an initial 0.4 μL injection (excluded from subsequent data analysis) was followed by 25 independent injections of 1.5 μL with a stirring rate of 750 rpm to ensure rapid mixing. A 120 s interval between injections was applied to guarantee the equilibrium at each titration point. Blank experiments (ligands against buffer) were carried out for each ligand and subtracted to corresponding titrations in order to screen dilution heat contributions. Competition experiments were conducted by adding saturating concentrations of albumin-binding drugs (either 250 μM Ibu or 200 μM War) to dhSA in the measure cell and titrating each PFAS (4 mM) with the aforementioned instrumental parameters. Data were analyzed using the MicroCal PEAQ-ITC Evaluation software (Malvern Panalytical, Malvern, UK). Integrated heat signals were fitted to “one set of sites” (C6O4, PFHxA), “two sets of sites” (PFOA), or “sequential” (HPFO-DA) binding models. Values for the binding affinity constant (KA = 1/KD) and enthalpy change (ΔH), together with the stoichiometry of each PFAS-dhSA reaction, were obtained from curve fitting. Free energy and the entropy change (ΔS) were calculated from the Gibbs free energy (ΔG) relationships: ΔG = ΔH – TΔS = −RT ln(KA).
These include ibuprofen (Ibu) and warfarin (War), two well-characterized molecules known to share the same fatty acid-binding sites (FA4 and FA6 for Ibu, FA7 for War) with long-chain PFASs (Figure 2a).[45] Again, the short-chain perfluoroalkyl compound PFHxA was included as the control. […] The results are consistent with those previously reported that identified the ibuprofen-binding pocket as a preferable cavity to lodge polyfluoroalkyl compounds.[45]

[2] = target: T1, human serum albumin (hSA); assay: Isothermal titration calorimetry (ITC) of PFAS binding to defatted hSA
Description: as §1

[3] = target: T1, human serum albumin (hSA); assay: Crystal structure of hSA in complex with HPFO-DA and Myr (PDB 7Z57); format: binding; conditions: ternary complex hSA-HPFO-DA-Myr, 1:20:5 molar ratio
Description: Crystallization trials of dhSA in complex with HPFO-DA, C6O4 and sodium myristate (Myr) were carried out at 285 K in an MRC maxi 48-well crystallization plate (Hampton Research, Aliso Viejo, CA, USA) using the sitting-drop vapor-diffusion method and the Morpheus MD1–46 protein crystallization screen kit (Molecular Dimensions Ltd., Catcliffe, UK). Droplets of 1.6 μL volume (0.8 μL of protein complex and 0.8 μL of reservoir solution) were set up using an Oryx 8 crystallization robot (Douglas Instruments Ltd., Catcliffe, UK) and equilibrated against 120 μL reservoir solution. In all the cases, best crystals were obtained by streak- or micro-seeding and left for 5–7 days. Crystals of dhSA (1 mM) incubated with a 20-fold molar excess of HPFO-DA (20 mM) and a fivefold molar excess of Myr (5 mM) were obtained using the following precipitant agents: 50 mM bicine, 50 mM Trizma base, 30 mM sodium fluoride, 30 mM sodium bromide, 30 mM sodium iodide, 12.5% v/v MPD, 12.5% w/v PEG 1000, and 12.5% w/v PEG 3350 pH 8.5. […]
The structure was solved by molecular replacement with software PHASER[49] using as a template the model 7AAI.[45] […] Intramolecular and intermolecular hydrogen bond interactions were analyzed by PROFUNC,[53] […]

[4] = environmentally exposed human populations; cited from earlier work
[5] = 310 K, sequential binding, first binding event
[6] = 310 K, sequential binding, second binding event
[7] = 298 K, two sets of sites, high-affinity sites
[8] = 298 K, two sets of sites, low-affinity sites
[9] = 310 K, two sets of sites, high-affinity sites
[10] = 310 K, two sets of sites, low-affinity sites

T1 sequence (P02768 25-609): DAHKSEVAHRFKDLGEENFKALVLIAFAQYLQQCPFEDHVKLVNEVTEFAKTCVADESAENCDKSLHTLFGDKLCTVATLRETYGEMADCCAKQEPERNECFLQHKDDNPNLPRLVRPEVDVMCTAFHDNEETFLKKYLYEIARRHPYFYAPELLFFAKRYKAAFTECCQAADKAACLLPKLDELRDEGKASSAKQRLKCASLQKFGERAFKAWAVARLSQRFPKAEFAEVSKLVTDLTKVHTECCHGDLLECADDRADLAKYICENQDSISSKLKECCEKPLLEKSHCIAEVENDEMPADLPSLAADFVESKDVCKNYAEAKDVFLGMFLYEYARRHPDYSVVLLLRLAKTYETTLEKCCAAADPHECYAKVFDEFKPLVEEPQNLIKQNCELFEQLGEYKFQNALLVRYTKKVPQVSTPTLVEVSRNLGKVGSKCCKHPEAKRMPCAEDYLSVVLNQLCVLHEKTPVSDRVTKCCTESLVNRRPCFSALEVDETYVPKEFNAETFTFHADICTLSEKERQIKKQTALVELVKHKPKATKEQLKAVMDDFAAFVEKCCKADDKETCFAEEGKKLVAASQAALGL

SMILES	titration profile to hSA saturated with War [1]	titration profile to Ibu-saturated hSA [1]	preferably occupied hSA binding sites [1]	n (stoichiometry) ([2]; 298 K, one set of sites)	ΔG ([2]; 298 K, one set of sites)	ΔH ([2]; 298 K, one set of sites)	n (stoichiometry) ([2]; 310 K, one set of sites)	ΔG ([2]; 310 K, one set of sites)	ΔH ([2]; 310 K, one set of sites)	–TΔS ([2]; 310 K, one set of sites) [kcal/mol]	Kd ([2]; KD, 298 K, one set of sites) [µM]	Kd ([2]; KD, 310 K, one set of sites) [µM]	number of distinct binding sites occupied in crystal structure [3]	average half-life for serum elimination [4]	other results
O=C(O)C(F)(F)OC1(F)OC(F)(F)OC1(F)OC(F)(F)F (stereo not drawn) [C6O4, perfluoro ([5-methoxy-1,3-dioxolan-4-yl]oxy) acetic acid]	comparable to that of hSA in the absence of competitive drug	nearly saturated flat curve	FA4 and/or FA6 sites	1.6 ± 0.2	–32.10 kJ/mol	–21.4 ± 1.4 kJ/mol	1.5 ± 0.3	–31.70 kJ/mol	–25.8 ± 4.2 kJ/mol	0.406	2.4 ± 0.1	5.4 ± 2.1	–	–	–TΔS ([2]; 298 K, one set of sites): –10.7 kJ/mol
O=C(O)C(F)(OC(F)(F)C(F)(F)C(F)(F)F)C(F)(F)F (stereo not drawn) [HPFO-DA, 2,3,3,3-tetrafluoro-2-(heptafluoropropoxy) propanoic acid]	comparable to that of hSA in the absence of competitive drug	nearly saturated flat curve	FA4 and/or FA6 sites	–	–	–	–	–	–	–	–	–	two	–	fold lower binding affinity (KD) compared to PFOA high-affinity sites ([2]; 298 K): ~47 fold; ΔH2 ([2]; 298 K, sequential binding, second binding event): 8.08 kcal/mol and 8.08 ± 0.454 kcal/mol; ΔH1 [2, 5]: –23.2 ± 3.4 kJ/mol; –TΔS1 [2, 5]: –6.54 kJ/mol; ΔH2 [2, 6]: 6.74 ± 0.669 kcal/mol; –TΔS2 [2, 6]: –55.4 kJ/mol; Kd ([2]; KD1, 298 K, sequential binding, first binding event): 19 ± 1.3 µM; Kd ([2]; KD1, 310 K, sequential binding, first binding event): 9.9 ± 2.3 µM; Kd ([2]; KD2, 310 K, sequential binding, second binding event): 27 ± 8.1 µM; Kd ([2]; human, pH 7.4, KD2, 298 K, sequential binding, second binding event): > 80 µM; Kd ([2]; read-out: KD2, 298 K, sequential binding, second binding event): 84.2 ± 14.6 µM
CCCCCCCCCCCCCC(=O)O [Myr, sodium myristate]	–	–	–	–	–	–	–	–	–	–	–	–	four	–	–
O=C(O)C(F)(F)C(F)(F)C(F)(F)C(F)(F)C(F)(F)F [PFHxA, Perfluorohexanoic acid]	comparable to that of hSA in the absence of competitive drug	nearly saturated flat curve	FA4 and/or FA6 sites	1.02 ± 0.05	–30.60 kJ/mol	–34.1 ± 7.40 kJ/mol	1.03 ± 0.05	–31.70 kJ/mol	–39.2 ± 2.00 kJ/mol	1.84	4.5 ± 2.1	5.9 ± 0.7	–	–	–
O=C(O)C(F)(F)C(F)(F)C(F)(F)C(F)(F)C(F)(F)C(F)(F)C(F)(F)F [PFOA, perfluorooctanoic acid]	–	–	–	–	–	–	–	–	–	–	–	–	–	1–5 years	n (stoichiometry) [2, 7]: 0.89 ± 0.30; ΔG [2, 7]: –36.10 kJ/mol; –TΔS [2, 7]: –17.70 kJ/mol; ΔG [2, 8]: –26.60 kJ/mol; –TΔS [2, 8]: –28.2 kJ/mol; n (stoichiometry) [2, 9]: 0.95 ± 0.2; ΔG [2, 9]: –38.10 kJ/mol; ΔH [2, 9]: –16.5 ± 1.9 kJ/mol; –TΔS [2, 9]: –21.6 kJ/mol; n (stoichiometry) [2, 10]: 9.5 ± 0.20; ΔG [2, 10]: –29.10 kJ/mol; ΔH [2, 10]: –2.26 ± 0.75 kJ/mol; –TΔS [2, 10]: –31.30 kJ/mol; Kd ([2]; KD, 298 K, two sets of sites, low-affinity sites): 29.7 ± 1.7 µM; Kd ([2]; KD, 310 K, two sets of sites, low-affinity sites): 46 ± 2 µM; Kd ([2]; human, pH 7.4, KD, 298 K, two sets of sites, high-affinity sites): 0.4 ± 0.01 µM; Kd ([2]; human, pH 7.4, KD, 310 K, two sets of sites, high-affinity sites): 39.3 ± 0.4 µM
O=S(=O)(O)C(F)(F)C(F)(F)C(F)(F)C(F)(F)C(F)(F)C(F)(F)C(F)(F)C(F)(F)F [PFOS, perfluorooctanesulfonic acid]	–	–	–	–	–	–	–	–	–	–	–	–	–	1–5 years	–
